Key:
[1] = test system: splenocytes stimulated in vitro with ovalbumin; test: In vitro splenocyte culture from treated mice, ovalbumin stimulation (cytokine ELISA); assay type: in vivo, BALB/c mice; conditions: FIG. 3B; mice treated 5 μg s.c.; allergen (ovalbumin) stimulation; vs buffer
[2] = test system: allergic mice challenged with ovalbumin; test: Murine model of allergic pulmonary inflammation: treatment studies (BAL cells and cytokines); assay type: in vivo, BALB/c mice; conditions: vs vehicle; for number of eosinophils recovered in the BAL fluid / numbers of macrophages in BAL fluid / total cellular infiltrate in BAL fluid / IL-5 concentrations in the BAL fluid / IL-10 concentrations in the BAL fluid: Experiments 5 and 6, lipid 5 μg s.c.; for number of eosinophils recovered in the BAL fluid / numbers of macrophages in BAL fluid / total cellular infiltrate in BAL fluid: M. vaccae 0.1 mg s.c.
[3] = test system: freshly isolated murine peritoneal macrophages; test: LPS-induced IL-6 secretion in freshly isolated peritoneal macrophages (ELISA); assay type: cell-based, BALB/c mice
Method: Experiment 7 was carried out to resolve if 10(Z)-hexadecenoic acid has a direct effect on immune cells. Macrophages were selected for this study on account of their ubiquity and diverse role in immune processes. To simulate inflammation, freshly isolated mouse peritoneal macrophages were challenged with lipopolysaccharide (LPS; 1 μg/mL) ex vivo.
Murine peritoneal macrophages were isolated as previously described (Zhang, X. et al. (2008)). Briefly, mice received one 1 ml i.p. injection of 3% thioglycollate medium (Cat. No. 9000-294, VWR, Radnor, Pa., USA). Ninety-six hours later, macrophages were collected in DPBS (Cat. No. 14190136, Invitrogen, Carlsbad, Calif., USA). Cells were centrifuged and resuspended in DMEM/F-12 (Cat. No. 10565018, Invitrogen) supplemented to be 10% (v/v) fetal bovine serum (Cat. No. 16000036, Invitrogen) and 1% penicillin/streptomycin (Cat. No. 15140148, Invitrogen). One mouse yielded enough cells for one experimental replicate. 1×10^5 cells/well were allowed to adhere for 1.5 h before being washed with DPBS. 10(Z)-hexadecenoic acid was dissolved in DMEM/F-12 with 0.5% (v/v) dimethyl sulfoxide (Cat. No. D8418, Sigma-Aldrich). The macrophages were incubated with either 10(Z)-hexadecenoic acid (0.4 μM, 4 μM, 20 μM, 100 μM, 500 μM, 1000 μM) or DMEM/F-12 for 1 h before being stimulated with 1 μg/ml lipopolysaccharide (serotype 0127:B8, Sigma-Aldrich, St. Louis, Mo., USA). Culture supernatants were collected at 6, 12, and 24 h post-stimulation.
Cell culture supernatants from freshly isolated peritoneal macrophages were diluted 1:200, and IL-6 was measured using sandwiched ELISA (Cat. No. 431304, Biolegend, San Diego, Calif., USA). All samples were measured in duplicate.

[4] = test system: freshly isolated murine peritoneal macrophages; test: Proinflammatory cytokine and chemokine ligand mRNA levels (RNAseq) in LPS-stimulated peritoneal macrophages; assay type: cell-based
Method: This can be measured using RNAseq analysis of freshly isolated murine peritoneal macrophages stimulated with LPS, in the presence or absence of 10(Z)-hexadecenoic acid. […] Compounds of the invention are therefore useful in inhibiting the proinflammatory cascade that contributes to the pathology of sepsis.
This difference was observable as early as 6 h after LPS challenge, and was sustained for at least 24 h. The effect also appeared to be concentration and time dependent. The lowest concentration of 0.4 μM was ineffective at 6 h, but reduced IL-6 secretion to 40% of control levels at 24 h. This time and concentration dependence may indicate that a receptor-mediated transcriptional change is occurring. In contrast to the effects of 10(Z)-hexadecenoic acid on LPS-induced IL-6 secretion, it had no effect of IL-6 secretion by itself (FIG. 4D). A transcriptional change was confirmed by measurement of pro-inflammatory cytokine and chemokine ligand mRNA levels in macrophages pre-treated with 10(Z)-hexadecenoic acid for 1 h prior to LPS treatment (Table 2).

[5] = test system: freshly isolated murine peritoneal macrophages; test: Sulforhodamine B (SRB) macrophage cell viability / cytotoxicity assay
Method: Sulforhodamine B (SRB) was used to assess cytotoxic effects of various concentrations of 10(Z)-hexadecenoic acid (10 μM, 50 μM, 100 μM, 250 μM, 500 μM, 1000 μM) after 0, 6, 12, 24, 48, and 72 h of incubation with freshly isolated murine peritoneal macrophages. Percent control growth is expressed as % viability and is a ratio of the amount of growth that occurred with treatment over the amount of growth that occurred in media. […] Data are expressed as mean±SEM of 3-7 mice per condition.
Cytotoxicity was determined using the sulforhodamine B (SRB) colorimetric assay, as previously described (Vichai and Kirtikara, 2006). Briefly, without removing the culture media, cells were fixed by adding cold trichloroacetic acid and incubated at 4° C. for 1 h. The plates were washed with slow-running tap water and set out to dry overnight. Then, 0.057% SRB (Cat. No. AC333130050, Fisher, Pittsburgh, Pa., USA), solubilized in 10 mMTris (Cat. No. BP153, Fisher), was added to each well. After 30 min, plates were washed with 1% acetic acid and set out to dry overnight. SRB was measured at 490 nm on a Synergy HT microplate reader (Part Number 7091000, Biotek, Winooski, Vt., USA). Cell viability was expressed as the ratio of experimental and control growth.

CCCCC/C=C\CCCCCCCCC(=O)OCC(COC(=O)CCCCCCCC/C=C\CCCCC)OC(=O)CCCCCCCC/C=C\CCCCC [1,2,3-tri[Z-10-hexadecenoyl]glycerol]
IL-5 levels in the supernatant of splenocytes [1]: decrease
IL-10 levels in the supernatant of splenocytes [1]: increase
number of eosinophils recovered in the BAL fluid [2]: reduction
numbers of macrophages in BAL fluid [2]: not increased
total cellular infiltrate in BAL fluid [2]: reduction
IL-5 concentrations in the BAL fluid [2]: decrease
IL-10 concentrations in the BAL fluid [2]: increase

CCCCC/C=C\CCCCCCCCC(=O)O [10(Z)-hexadecenoic acid]
numbers of neutrophils in BAL fluid ([2]; Experiment 6): did not induce increases
number of eosinophils recovered in the BAL fluid [2]: significant reduction
numbers of macrophages in BAL fluid [2]: did not induce increases
total cellular infiltrate in BAL fluid [2]: significant reduction
IL-5 concentrations in the BAL fluid [2]: decrease
IL-10 concentrations in the BAL fluid [2]: increase
LPS-induced IL-6 secretion ([3]; 0.4 μM, 6 h after LPS): ineffective
LPS-induced IL-6 secretion ([3]; 0.4 μM, 24 h after LPS): 40 % of control levels
LPS-induced IL-6 secretion ([3]; 1 h preincubation (0.4-1000 μM), LPS 1 μg/mL, 6, 12, 24 h, vs media alone): secreted less IL-6
IL-6 secretion by itself ([3]; absence of LPS, FIG. 4D): no effect
Ccl17 mRNA Mean #Reads s148.2 + LPS ([4]; preincubation then LPS, n = 3, LPS alone 24): 3
II11 mRNA Mean #Reads s148.2 + LPS ([4]; preincubation then LPS, n = 3, LPS alone 26): 5
Ccl22 mRNA Mean #Reads s148.2 + LPS ([4]; preincubation then LPS, n = 3, LPS alone 327): 117
Ccl4 mRNA Mean #Reads s148.2 + LPS ([4]; preincubation then LPS, n = 3, LPS alone 603): 305
II12a mRNA Mean #Reads s148.2 + LPS ([4]; preincubation then LPS, n = 3, LPS alone 714): 268
Ccl6 mRNA Mean #Reads s148.2 + LPS ([4]; preincubation then LPS, n = 3, LPS alone 810): 368
Ccl7 mRNA Mean #Reads s148.2 + LPS ([4]; preincubation then LPS, n = 3, LPS alone 1182): 441
II6 mRNA Mean #Reads s148.2 + LPS ([4]; preincubation then LPS, n = 3, LPS alone 1302): 305
Tnf mRNA Mean #Reads s148.2 + LPS ([4]; preincubation then LPS, n = 3, LPS alone 2098): 1023
Cxcl2 mRNA Mean #Reads s148.2 + LPS ([4]; preincubation then LPS, n = 3, LPS alone 4726, functional homologue of human IL-8): 2680
Ccl2 mRNA Mean #Reads s148.2 + LPS ([4]; preincubation then LPS, n = 3, LPS alone 5656): 2234
Ccl3 mRNA Mean #Reads s148.2 + LPS ([4]; preincubation then LPS, n = 3, LPS alone 6693): 4067
II1b mRNA Mean #Reads s148.2 + LPS ([4]; preincubation then LPS, n = 3, LPS alone 15,957): 5349
II1a mRNA Mean #Reads s148.2 + LPS ([4]; preincubation then LPS, n = 3, LPS alone 16533): 8500
Ccl2 mRNA Effect ([4]; vs LPS alone): ↓
Ccl2 mRNA Fold-change ([4]; vs LPS alone): 0.39
Ccl2 mRNA Log2 Fold-change ([4]; vs LPS alone): −1.34
Ccl3 mRNA Effect ([4]; vs LPS alone): ↓
Ccl3 mRNA Fold-change ([4]; vs LPS alone): 0.61
Ccl3 mRNA Log2 Fold-change ([4]; vs LPS alone): −0.72
Ccl4 mRNA Effect ([4]; vs LPS alone): ↓
Ccl4 mRNA Fold-change ([4]; vs LPS alone): 0.51
Ccl4 mRNA Log2 Fold-change ([4]; vs LPS alone): −0.98
Ccl6 mRNA Effect ([4]; vs LPS alone): ↓
Ccl6 mRNA Fold-change ([4]; vs LPS alone): 0.45
Ccl6 mRNA Log2 Fold-change ([4]; vs LPS alone): −1.14
Ccl7 mRNA Effect ([4]; vs LPS alone): ↓
Ccl7 mRNA Fold-change ([4]; vs LPS alone): 0.37
Ccl7 mRNA Log2 Fold-change ([4]; vs LPS alone): −1.42
Ccl17 mRNA Effect ([4]; vs LPS alone): ↓
Ccl17 mRNA Fold-change ([4]; vs LPS alone): 0.12
Ccl17 mRNA Log2 Fold-change ([4]; vs LPS alone): −3.08
Ccl22 mRNA Effect ([4]; vs LPS alone): ↓
Ccl22 mRNA Fold-change ([4]; vs LPS alone): 0.36
Ccl22 mRNA Log2 Fold-change ([4]; vs LPS alone): −1.48
Cxcl2 mRNA Effect ([4]; vs LPS alone): ↓
Cxcl2 mRNA Fold-change ([4]; vs LPS alone): 0.57
Cxcl2 mRNA Log2 Fold-change ([4]; vs LPS alone): −0.82
II1a mRNA Effect ([4]; vs LPS alone): ↓
II1a mRNA Fold-change ([4]; vs LPS alone): 0.51
II1a mRNA Log2 Fold-change ([4]; vs LPS alone): −0.96
II1b mRNA Effect ([4]; vs LPS alone): ↓
II1b mRNA Fold-change ([4]; vs LPS alone): 0.34
II1b mRNA Log2 Fold-change ([4]; vs LPS alone): −2.16
II6 mRNA Effect ([4]; vs LPS alone): ↓
II6 mRNA Fold-change ([4]; vs LPS alone): 0.23
II6 mRNA Log2 Fold-change ([4]; vs LPS alone): −2.09
II11 mRNA Effect ([4]; vs LPS alone): ↓
II11 mRNA Fold-change ([4]; vs LPS alone): 0.20
II11 mRNA Log2 Fold-change ([4]; vs LPS alone): −2.35
II12a mRNA Effect ([4]; vs LPS alone): ↓
II12a mRNA Fold-change ([4]; vs LPS alone): 0.37
II12a mRNA Log2 Fold-change ([4]; vs LPS alone): −1.42
Tnf mRNA Effect ([4]; vs LPS alone): ↓
Tnf mRNA Fold-change ([4]; vs LPS alone): 0.49
Tnf mRNA Log2 Fold-change ([4]; vs LPS alone): −1.04
viable macrophages ([5]; 1 mM, at most time points (0-72 h)): less than 40%
macrophage viability ([5]; all other concentrations (10-500 μM), vs media controls): as viable as or more viable than media controls

From US10736864B2, “Immunotherapeutic agent” (Immodulon Therapeutics Limited, priority 2016, dated 2020)
